# According to US7951807B2 (Abbott GmbH & Co. KG, priority 2004, dated 2011):
# Counter-ions that a name gives are not always drawn.
# Target: T1, human V1a receptors (Homo sapiens)
# T1 construct: expressed in transfected cells
# Assay: Vasopressin V1a Receptor Binding Test
# Settings: membranes of CHO cells with stably expressed human V1a receptors, 125 iodine AVP displacement
# Method: Vasopressin V1a Receptor Binding Test
# (§1) The substances were dissolved in DMSO in a concentration of 10^−2 M and further diluted in DMSO to 10^−3 M to 10^−9 M. These DMSO solutions were diluted 1:10 with a test buffer. In the test batch, the substance concentration was again diluted 1:10.
# The binding test was conducted according to the method of Tahara et al. (Tahara A. et al., Brit. J. Pharmacol. 125, 1463-1470 (1998)). In the test batch (0.250 ml), membranes (50 μg protein in an incubation buffer (50 mmol tris, 10 mmol MgCl2, 0.1% BSA adjusted to pH 7.4 with HCl)) of CHO cells were incubated with stably expressed human V1a receptors (preparation V1a clone 5.0, with protease inhibitors, Roche complete Mini # 1836170) with 0.04 nmol 125 iodine AVP (NEX128) in the incubation buffer (total binding) or additionally with increasing concentrations of the test substance (displacement experiment). The non-specific binding was determined with 10^−6 M AVP. Determinations were carried out three times.
# (§2) After incubation, 60 minutes at room temperature, the free radioligand was filtered off using vacuum filtration (Skatron cell harvester 7000) through Wathman GF/B fibreglass filters, and the filters were transferred to scintillation containers.
# (§3) The liquid scintillation measurement was made in a Tricarb device, model 2000 or 2200CA (Packard). The conversion of the measured cpm into dpm was carried out with the help of a standard quench series.
# (§4) The binding parameters were calculated using non-linear regression in SAS. The algorithms of the program work in a manner analogous to the LIGAND evaluation program (Munson P J und Rodbard D, Analytical Biochem. 107, 220-239 (1980)).
row,Ki [µM],SMILES
1,< 0.1,"CN1CCC(N2CCN(C(=O)OC3(c4ccccc4)C(=O)N(S(=O)(=O)c4ccccc4)c4ccc(Cl)cc43)CC2)CC1 (stereo not drawn) [Example 4, 4-(1-Methyl-piperidine-4-yl)-piperazine-1-carboxylic acid-[1-benzenesulfonyl-5-chloro-2-oxo-3-phenyl-2,3-dihydro-1H-indole-3-yl] ester dihydrochloride]"
2,< 0.1,"COc1ccc(S(=O)(=O)N2C(=O)C(OC(=O)N3CCN(C4CCN(C)CC4)CC3)(c3ccccc3C)c3cc(OC)ccc32)c(OC)c1 (stereo not drawn) [Example 8, 4-(1-Methyl-piperidine-4-yl)-piperazine-1-carboxylic acid-[1-(2,4-dimethoxy-benzenesulfonyl)-5-methoxy-2-oxo-3-(2-methylphenyl)-2,3-dihydro-1H-indole-3-yl] ester dihydrochloride]"
3,< 0.1,"COc1ccc(S(=O)(=O)N2C(=O)C(OC(=O)N3CCN(C4CCN(Cc5ccccc5)CC4)CC3)(c3ccccc3OC)c3cc(OC)ccc32)c(OC)c1 (stereo not drawn) [Example 13, 4-(1-Benzyl-piperidine-4-yl)-piperazine-1-carboxylic acid-[1-(2,4-dimethoxy-benzenesulfonyl)-5-methoxy-2-oxo-3-(2-methoxyphenyl)-2,3-dihydro-1H-indole-3-yl] ester]"
4,< 0.1,"COc1ccc(S(=O)(=O)N2C(=O)C(NC(=O)N3CCN(C4CCN(C)CC4)CC3)(c3ccccc3OC)c3cc(Cl)ccc32)c(OC)c1 (stereo not drawn) [Example 3, 4-(1-Methyl-piperidine-4-yl)-piperazine-1-carboxylic acid-[1-(2,4-dimethoxy-benzenesulfonyl)-5-chloro-2-oxo-3-(2-methoxyphenyl)-2,3-dihydro-1H-indole-3-yl] amide dihydrochloride]"
5,< 0.1,"CN1CCN(C2CCN(C(=O)OC3(c4ccccc4)C(=O)N(S(=O)(=O)c4ccccc4)c4ccc(Cl)cc43)CC2)CC1 (stereo not drawn) [Example 5, 4-(4-Methyl-piperazine-1-yl)-piperidine-1-carboxylic acid-[1-benzenesulfonyl-5-chloro-2-oxo-3-phenyl-2,3-dihydro-1H-indole-3-yl] ester]"

row,SMILES,Ki [µM]
1,COc1ccccc1C1(OC(=O)N2CCN(C3CCN(C)CC3)CC2)C(=O)N(S(=O)(=O)c2ccccc2)c2ccc(Cl)cc21 (stereo not drawn) [Example 1],< 0.1

# Target: T2, human V1b receptors (Homo sapiens, UniProt P47901)
# T2 construct: expressed in transfected cells
# T2 sequence (P47901 1-424): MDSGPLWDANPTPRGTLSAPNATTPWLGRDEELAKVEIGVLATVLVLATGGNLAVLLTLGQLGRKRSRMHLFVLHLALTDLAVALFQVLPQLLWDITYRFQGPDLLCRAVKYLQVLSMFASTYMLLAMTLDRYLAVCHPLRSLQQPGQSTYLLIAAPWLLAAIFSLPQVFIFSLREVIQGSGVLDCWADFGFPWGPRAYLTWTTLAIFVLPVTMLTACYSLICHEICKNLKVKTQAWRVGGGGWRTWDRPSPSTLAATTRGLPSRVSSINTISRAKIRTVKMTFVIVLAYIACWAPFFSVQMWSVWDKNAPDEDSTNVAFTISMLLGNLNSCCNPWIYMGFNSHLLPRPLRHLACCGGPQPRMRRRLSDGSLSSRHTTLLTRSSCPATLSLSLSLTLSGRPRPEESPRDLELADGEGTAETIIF
# Assay: Vasopressin V1b Receptor Binding Test
# Settings: membranes of CHO-K1 cells with stably expressed human V1b receptors, 3H-AVP displacement
# Method: Vasopressin V1b Receptor Binding Test
# as §1
# The binding test was conducted according to the method of Tahara et al. (Tahara A. et al., Brit. J. Pharmacol. 125, 1463-1470 (1998)). In the test batch (0.250 ml), membranes (58 μg protein in an incubation buffer) of CHO-K1 cells were incubated with stably expressed human V1b receptors (preparation V1b-3H2, with protease inhibitors, Roche complete Mini # 1836170) with 1.5 nmol ^3H-AVP (8-Arg-Vasopressin, NET 800) in incubation buffer (50 mmol Tris, 10 mmol MgCl2, 0.1% BSA adjusted to pH 7.4 with HCl) (total binding) or additionally with increasing concentrations of the test substance (displacement experiment). The non-specific binding was determined with 10^−6 M AVP. Determinations were carried out three times.
# Incubation buffer: 50 mmol tris, 10 mmol MgCl2, 0.1% BSA adjusted to pH 7.4 with HCl.
# as §2, §3, §4
row,Ki [µM],SMILES
1,< 0.1,"COc1ccc(S(=O)(=O)N2C(=O)C(OC(=O)N3CCN(C4CCN(C)CC4)CC3)(c3ccccc3OC)c3cc(C)ccc32)c(OC)c1 (stereo not drawn) [Example 17, 4-(1-Methyl-piperidine-4-yl)-piperazine-1-carboxylic acid-[1-(2,4-dimethoxy-benzenesulfonyl)-5-methyl-2-oxo-3-(2-methoxyphenyl)-2,3-dihydro-1H-indole-3-yl] ester dihydrochloride]"
2,< 0.1,"CCCOc1ccccc1C1(OC(=O)N2CCN(C3CCN(C)CC3)CC2)C(=O)N(S(=O)(=O)c2ccc(OC)cc2OC)c2ccc(OC)cc21 (stereo not drawn) [Example 2, 4-(1-Methyl-piperidine-4-yl)-piperazine-1-carboxylic acid-[1-(2,4-dimethoxy-benzenesulfonyl)-5-methoxy-2-oxo-3-(2-propoxyphenyl)-2,3-dihydro-1H-indole-3-yl] ester]"
3,< 0.1,"COc1ccc(S(=O)(=O)N2C(=O)C(NC(=O)N3CCN(C4CCN(C)CC4)CC3)(c3ccccc3OC)c3cc(OC)ccc32)c(OC)c1 (stereo not drawn) [Example 16, 4-(1-Methyl-piperidine-4-yl)-piperazine-1-carboxylic acid-[1-(2,4-dimethoxy-benzenesulfonyl)-5-methoxy-2-oxo-3-(2-methoxyphenyl)-2,3-dihydro-1H-indole-3-yl] amide dihydrochloride]"
4,< 0.1,"COc1ccc(S(=O)(=O)N2C(=O)C(OC(=O)N3CCN(C4CCN(C)CC4)CC3)(c3ccccc3OC)c3cc(F)ccc32)c(OC)c1 (stereo not drawn) [Example 10, 4-(1-Methyl-piperidine-4-yl)-piperazine-1-carboxylic acid-[1-(2,4-dimethoxy-benzenesulfonyl)-5-fluoro-2-oxo-3-(2-methoxyphenyl)-2,3-dihydro-1H-indole-3-yl] ester]"
5,< 0.1,"COc1ccc(S(=O)(=O)N2C(=O)C(OC(=O)N3CCN(C4CCN(C)CC4)CC3)(c3ccccc3OC)c3cc(OC)ccc32)c(OC)c1 (stereo not drawn) [Example 6, 4-(1-Methyl-piperidine-4-yl)-piperazine-1-carboxylic acid-[1-(2,4-dimethoxy-benzenesulfonyl)-5-methoxy-2-oxo-3-(2-methoxyphenyl)-2,3-dihydro-1H-indole-3-yl] ester dihydrochloride]"
6,< 0.1,"CCOc1ccccc1C1(OC(=O)N2CCN(C3CCN(C)CC3)CC2)C(=O)N(S(=O)(=O)c2ccc(OC)cc2OC)c2ccc(OC)cc21 (stereo not drawn) [Example 30, 4-(1-Methyl-piperidine-4-yl)-piperazine-1-carboxylic acid-[1-(2,4-dimethoxy-benzenesulfonyl)-5-methoxy-2-oxo-3-(2-ethoxyphenyl)-2,3-dihydro-1H-indole-3-yl] ester dihydrochloride]"
7,< 0.1,"COc1ccc2c(c1)C(OC(=O)N1CCN(C3CCN(C)CC3)CC1)(c1ccccc1OC(C)C)C(=O)N2S(=O)(=O)c1ccc(C)cc1OC (stereo not drawn) [Example 26, 4-(1-Methyl-piperidine-4-yl)-piperazine-1-carboxylic acid-[1-(2-methoxy-4-methyl-benzene)-sulfonyl-5-methoxy-2-oxo-3-(2-isopropoxyphenyl)-2,3-dihydro-1H-indole-3-yl] ester dihydrochloride]"
8,< 0.1,"COc1ccc(S(=O)(=O)N2C(=O)C(OC(=O)N3CCN(C4CCN(C)CC4)CC3)(c3ccccc3OC(C)C)c3cc(OC)ccc32)c(OC)c1 (stereo not drawn) [Example 24, 4-(1-Methyl-piperidine-4-yl)-piperazine-1-carboxylic acid-[1-(2,4-dimethoxy-benzenesulfonyl)-5-methoxy-2-oxo-3-(2-isopropoxyphenyl)-2,3-dihydro-1H-indole-3-yl] ester dihydrochloride]"
9,< 0.1,"COc1ccc(S(=O)(=O)N2C(=O)C(OC(=O)N3CCN(C4CCN(C)CC4)CC3)(c3ccccc3OC)c3ccccc32)c(OC)c1 (stereo not drawn) [Example 23, 4-(1-Methyl-piperidine-4-yl)-piperazine-1-carboxylic acid-[1-(2,4-dimethoxy-benzenesulfonyl)-2-oxo-3-(2-methoxyphenyl)-2,3-dihydro-1H-indole-3-yl] ester dihydrochloride]"
